From patent US20110152333A1, “3-CYANOPYRROLIDINYL-PHENYL-OXAZOLIDINONES AS ANTIBACTERIAL AGENTS” (FERRER INTERNACIONAL, S.A., priority 2008, published 2011)
In brackets after ≈: the same amount, converted by molar mass. Read-outs that look alike come from different tables or passages of the source.

Assays:
E. faecium ATCC51559 MDR = assay: MIC, micro dilution (NCCLS M7-A5); type: cell-based, Enterococcus faecium
MRSE-128 = assay: MIC, micro dilution (NCCLS M7-A5); type: cell-based; details: Table 2
S. aureus LNZ-R 432 = assay: MIC, micro dilution (NCCLS M7-A5); type: cell-based; details: Staphylococcus aureus, LNZR432, Table 1
E. faecalis ECFL-1-128 = assay: MIC, micro dilution (NCCLS M7-A5); type: cell-based; details: Enterococcus faecalis, ECFL1128, Table 2
S. aureus 199B = assay: MIC, micro dilution (NCCLS M7-A5); type: cell-based; details: Staphylococcus aureus, Table 2
E. faecium ATCC10541 = assay: MIC, micro dilution (NCCLS M7-A5); type: cell-based; details: Enterococcus faecium, Table 2
MRSE = assay: MIC, micro dilution (NCCLS M7-A5); type: cell-based; details: Staphylococcus epidermidis, Table 2
[1] = system: S. pneumoniae ATCC49619 PR; assay: MIC, micro dilution (NCCLS M7-A5); type: cell-based, Streptococcus pneumoniae
S. aureus 1199 = assay: MIC, micro dilution (NCCLS M7-A5); type: cell-based; details: Staphylococcus aureus, Table 2
[2] = system: B. fragilis sp. fragilis ATCC25285; assay: MIC, micro dilution (NCCLS M7-A5); type: cell-based; details: Bacteroides fragilis, Table 1, Brucella Blood medium for anaerobic strains
E. faecium LNZ-R LR-4 = assay: MIC, micro dilution (NCCLS M7-A5); type: cell-based, Enterococcus faecium
E. faecalis ECFL-2 = assay: MIC, micro dilution (NCCLS M7-A5); type: cell-based; details: Enterococcus faecalis, ECFL2, Table 2
H. influenzae ATCC49247 = assay: MIC, micro dilution (NCCLS M7-A5); type: cell-based, Haemophylus influenzae; details: Haemophilus influenzae, Table 1
S. Haemolyticus = assay: MIC, micro dilution (NCCLS M7-A5); type: cell-based; details: Staphylococcus haemolyticus, Table 2
E. faecalis ATCC29212 = assay: MIC, micro dilution (NCCLS M7-A5); type: cell-based; details: Enterococcus faecalis, Table 2
E. faecium ECFM-1-128 = assay: MIC, micro dilution (NCCLS M7-A5); type: cell-based; details: Enterococcus faecium, ECFM1128, Table 2
S. aureus ATCC43300 MR = assay: MIC, micro dilution (NCCLS M7-A5); type: cell-based; details: Staphylococcus aureus, Table 2
E. faecium ECFM-2 = assay: MIC, micro dilution (NCCLS M7-A5); type: cell-based; details: Enterococcus faecium, ECFM2, Table 2
[3] = system: S. epidermidis ATCC12228 MR; assay: MIC, micro dilution (NCCLS M7-A5); type: cell-based; details: Staphylococcus epidermidis, Table 2
S. aureus ATCC25923 MS = assay: MIC, micro dilution (NCCLS M7-A5); type: cell-based, Staphylococcus aureus
E. faecalis ECFL-1 = assay: MIC, micro dilution (NCCLS M7-A5); type: cell-based; details: Enterococcus faecalis, ECFL1, Table 2
Enteroc. = assay: Geometric mean MIC, enterococci; type: cell-based; details: Table 2, read-out: Geom. Mean MIC Enteroc.
[4] = system: Moraxella catarrhalis HCI-78; assay: MIC, micro dilution (NCCLS M7-A5); type: cell-based; details: HCI78, Table 1, 5% CO2
[5] = system: E. faecalis ATCC51575 MDR; assay: MIC, micro dilution (NCCLS M7-A5); type: cell-based; details: Enterococcus faecalis, Table 2
E. faecium ECFM-1 = assay: MIC, micro dilution (NCCLS M7-A5); type: cell-based; details: Enterococcus faecium, ECFM1, Table 2
[6] = system: S. aureus clinical strain cfr. methylase; assay: MIC, micro dilution (NCCLS M7-A5); type: cell-based; details: Staphylococcus aureus, Table 2
Staphyl. = assay: Geometric mean MIC, staphylococci; type: cell-based; details: Table 2, read-out: Geom. Mean MIC Staphyl.
[7] = system: S. pneumoniae ATCC6303 in vivo; assay: MIC, micro dilution (NCCLS M7-A5); type: cell-based; details: Streptococcus pneumoniae, Table 2
E. coli TG1 = assay: MIC, micro dilution (NCCLS M7-A5); type: cell-based; details: Escherichia coli, Table 2
[8] = system: S. aureus 1199B NorA overE; assay: MIC, micro dilution (NCCLS M7-A5); type: cell-based; details: Staphylococcus aureus
E. coli KAM-3 = assay: MIC, micro dilution (NCCLS M7-A5); type: cell-based; details: Escherichia coli, KAM3, Table 2
[9] = system: S. aureus ATCC33591 in vivo; assay: MIC, micro dilution (NCCLS M7-A5); type: cell-based; details: Staphylococcus aureus, Table 2
Gram+ = assay: Geometric mean MIC, Gram+; type: cell-based; details: Table 2, read-out: Geom. Mean MIC Gram+
[10] = system: Moraxella, Pasteurella and Bacteroides spp.; details: background; cited from earlier work
[11] = Enterococcus faecium, Table 1, read-out: MIC
[12] = Streptococcus pneumoniae, Table 1, 5% CO2, read-out: MIC
[13] = Staphylococcus aureus, Table 1, read-out: MIC
[14] = Enterococcus faecium, Table 2, read-out: MIC

For `CC(=O)NC[C@H]1CN(c2ccc(N3CCC(C#N)C3)c(F)c2)C(=O)O1` (stereo partly drawn) [Ex. 1, N-{(5S)-3-[3-fluoro-4-(3-cyanopyrrolidin-1-yl)phenyl]-2-oxo-5-oxazolidinylmethyl}acetamide], the MIC (E. faecium ATCC51559 MDR; [11]) was 0.25 µg/mL (≈ 0.722 µM), the MIC (E. faecium ATCC51559 MDR; Table 2) was 0.25 µg/mL (≈ 0.722 µM) and the MIC (MRSE-128) was 8 µg/mL (≈ 23.1 µM). For the same compound, the MIC (S. aureus LNZ-R 432) was 4 µg/mL (≈ 11.5 µM), the MIC (E. faecalis ECFL-1-128) was 32 µg/mL (≈ 92.4 µM) and the MIC (S. aureus 199B) was 1 µg/mL (≈ 2.89 µM). For the same compound, the MIC (E. faecium ATCC10541) was 0.25 µg/mL (≈ 0.722 µM), the MIC (MRSE) was 0.25 µg/mL (≈ 0.722 µM) and the MIC [1, 12] was 0.25 µg/mL (≈ 0.722 µM). It also gave an MIC ([1]; Table 2) of 0.25 µg/mL (≈ 0.722 µM), an MIC (S. aureus 1199) of 1 µg/mL (≈ 2.89 µM) and an MIC [2] of 0.5 µg/mL (≈ 1.44 µM). The MIC (E. faecium LNZ-R LR-4; [11]) was 8 µg/mL (≈ 23.1 µM), the MIC (E. faecium LNZ-R LR-4; Table 2) was 8 µg/mL (≈ 23.1 µM) and the MIC (E. faecalis ECFL-2) was 1 µg/mL (≈ 2.89 µM). It also gave an MIC (H. influenzae ATCC49247) of 4 µg/mL (≈ 11.5 µM), an MIC (S. Haemolyticus) of 8 µg/mL (≈ 23.1 µM) and an MIC (E. faecalis ATCC29212) of 0.25 µg/mL (≈ 0.722 µM). For the same compound, the MIC (E. faecium ECFM-1-128) was 32 µg/mL (≈ 92.4 µM), the MIC (S. aureus ATCC43300 MR) was 0.5 µg/mL (≈ 1.44 µM) and the MIC (E. faecium ECFM-2) was 0.5 µg/mL (≈ 1.44 µM). For the same compound, the MIC [3] was 0.25 µg/mL (≈ 0.722 µM), the MIC (S. aureus ATCC25923 MS; [13]) was 0.5 µg/mL (≈ 1.44 µM) and the MIC (S. aureus ATCC25923 MS; Table 2) was 0.5 µg/mL (≈ 1.44 µM). The MIC (E. faecalis ECFL-1) was 0.125 µg/mL (≈ 0.361 µM), the MIC (Enteroc.) was 0.3 µg/mL (≈ 0.866 µM) and the MIC [4] was 2 µg/mL (≈ 5.77 µM). The MIC [5] was 0.25 µg/mL (≈ 0.722 µM), the MIC (E. faecium ECFM-1) was 0.5 µg/mL (≈ 1.44 µM) and the MIC [6] was 4 µg/mL (≈ 11.5 µM). It also gave an MIC (Staphyl.) of 0.4 µg/mL (≈ 1.15 µM), an MIC [7] of 0.25 µg/mL (≈ 0.722 µM) and an MIC (E. coli TG1) of 32 µg/mL (≈ 92.4 µM). The MIC [8] was 0.5 µg/mL (≈ 1.44 µM), the MIC (E. coli KAM-3) was 1 µg/mL (≈ 2.89 µM) and the MIC [9] was 0.25 µg/mL (≈ 0.722 µM).
With `CC(=O)NC[C@H]1CN(c2ccc(N3CCC(O)C3)c(F)c2)C(=O)O1` (stereo partly drawn) [Ex. 5, (S)—N-[[3-[4-(3-hydroxypyrrolidinyl)-3-fluorophenyl]-2-oxo-5-oxazolidinyl]methyl]acetamide, reference compound] the MIC (E. faecium ATCC51559 MDR; [14]) was 1 µg/mL (≈ 2.96 µM), the MIC (MRSE-128) was 32 µg/mL (≈ 94.9 µM) and the MIC (E. faecalis ECFL-1-128) was 64 µg/mL (≈ 190 µM). The MIC (S. aureus 199B) was 2 µg/mL (≈ 5.93 µM), the MIC (E. faecium ATCC10541) was 2 µg/mL (≈ 5.93 µM) and the MIC (MRSE) was 1 µg/mL (≈ 2.96 µM). The MIC ([1]; Streptococcus pneumoniae, Table 2, read-out: MIC) was 1 µg/mL (≈ 2.96 µM), the MIC (S. aureus 1199) was 2 µg/mL (≈ 5.93 µM) and the MIC (E. faecium LNZ-R LR-4; [14]) was 32 µg/mL (≈ 94.9 µM). The MIC (E. faecalis ECFL-2) was 4 µg/mL (≈ 11.9 µM), the MIC (S. Haemolyticus) was 32 µg/mL (≈ 94.9 µM) and the MIC (E. faecalis ATCC29212) was 2 µg/mL (≈ 5.93 µM). The MIC (E. faecium ECFM-1-128) was 64 µg/mL (≈ 190 µM), the MIC (S. aureus ATCC43300 MR) was 1 µg/mL (≈ 2.96 µM) and the MIC (E. faecium ECFM-2) was 2 µg/mL (≈ 5.93 µM). It also gave an MIC [3] of 1 µg/mL (≈ 2.96 µM), an MIC (S. aureus ATCC25923 MS; Staphylococcus aureus, Table 2, read-out: MIC) of 2 µg/mL (≈ 5.93 µM) and an MIC (Gram+) of 1.4 µg/mL (≈ 4.15 µM). It also gave an MIC (E. faecalis ECFL-1) of 2 µg/mL (≈ 5.93 µM), an MIC (Enteroc.) of 1.7 µg/mL (≈ 5.04 µM) and an MIC [5] of 2 µg/mL (≈ 5.93 µM). The MIC (E. faecium ECFM-1) was 2 µg/mL (≈ 5.93 µM), the MIC [6] was 16 µg/mL (≈ 47.4 µM) and the MIC (Staphyl.) was 1.2 µg/mL (≈ 3.56 µM). It also gave an MIC [7] of 0.5 µg/mL (≈ 1.48 µM), an MIC (E. coli TG1) of 64 µg/mL (≈ 190 µM) and an MIC [8] of 1 µg/mL (≈ 2.96 µM). The MIC (E. coli KAM-3) was 4 µg/mL (≈ 11.9 µM) and the MIC [9] was 2 µg/mL (≈ 5.93 µM).
For `CC(=O)NC[C@H]1CN(c2ccc(N3CCOCC3)c(F)c2)C(=O)O1` [Linezolid, N-[[(5S)-3-[3-fluoro-4-(4-morpholinyl)phenyl]-2-oxo-5-oxazolidinyl]methyl]acetamide, reference compound], the MIC (E. faecium ATCC51559 MDR; [11]) was 0.5 µg/mL (≈ 1.48 µM), the MIC (S. aureus LNZ-R 432) was 16 to 32 µg/mL (≈ 47.4 to 94.9 µM) and the MIC [1, 12] was 1 µg/mL (≈ 2.96 µM). The MIC [2] was 2 µg/mL (≈ 5.93 µM), the MIC (E. faecium LNZ-R LR-4; [11]) was 64 µg/mL (≈ 190 µM) and the MIC (H. influenzae ATCC49247) was 16 µg/mL (≈ 47.4 µM). The MICs [10] was 2 to 8 µg/mL, the MIC (S. aureus ATCC25923 MS; [13]) was 1 µg/mL (≈ 2.96 µM) and the MIC [4] was 2 µg/mL (≈ 5.93 µM).
